# Measured values as given in the kinase profiling compilation of Christmann-Franck et al. (2016).
# Assays:
# Experiment in all cases: radiometric filter-binding kinase assay, Kinase HotSpot
# Details in all cases: compound 0.5 µM; ATP 10 µM
# MAPK13 (human) = MAPK13 (human) (UniProt O15264)
# ZAP70 (human) = ZAP70 (human) (UniProt P43403)
# PRKCB1 (human) = PRKCB1 (human) (UniProt P05771)
# NTRK2 (human) = NTRK2 (human) (UniProt Q16620)
# AXL (human) = AXL (human) (UniProt P30530)
# WNK2 (human) = WNK2 (human) (UniProt Q9Y3S1)
# STK16 (human) = STK16 (human) (UniProt O75716)
# Chain of STK16 (human) (O75716 whole entry, looked up): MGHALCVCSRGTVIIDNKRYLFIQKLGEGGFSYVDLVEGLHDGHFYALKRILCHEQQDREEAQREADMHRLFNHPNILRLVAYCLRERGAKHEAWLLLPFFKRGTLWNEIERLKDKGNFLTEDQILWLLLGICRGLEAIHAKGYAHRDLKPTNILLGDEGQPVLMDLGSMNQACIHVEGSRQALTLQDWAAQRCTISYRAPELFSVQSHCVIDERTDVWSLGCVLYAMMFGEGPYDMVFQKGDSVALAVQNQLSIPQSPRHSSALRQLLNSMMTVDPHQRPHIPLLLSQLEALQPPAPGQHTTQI
# MAP4K4 (human) = MAP4K4 (human) (UniProt O95819)
# FER (human) = FER (human) (UniProt P16591)
# TTK (human) = TTK (human) (UniProt P33981)
# EPHB2 (human) = EPHB2 (human) (UniProt P29323)
# BRSK1 (human) = BRSK1 (human) (UniProt Q8TDC3)
# ALK (human) = ALK (human) (UniProt Q9UM73)
# SYK (human) = SYK (human) (UniProt P43405)
# ULK1 (human) = ULK1 (human) (UniProt O75385)
# MAPKAPK3 (human) = MAPKAPK3 (human) (UniProt Q16644)
# CDK1 CCNB1 (human) = CDK1 CCNB1 (human) (UniProt P06493+P14635)
# HIPK4 (human) = HIPK4 (human) (UniProt Q8NE63)
# RPS6KA2 KD1 KD2 (human) = RPS6KA2 KD1 KD2 (human) (UniProt Q15349)
# NEK3 (human) = NEK3 (human) (UniProt P51956)
# STK11 (human) = STK11 (human) (UniProt Q15831)
# CDK2 CCNA2 (human) = CDK2 CCNA2 (human) (UniProt P24941+P20248)
# ROS1 (human) = ROS1 (human) (UniProt P08922)
# Chain of ROS1 (human) (P08922 whole entry, looked up): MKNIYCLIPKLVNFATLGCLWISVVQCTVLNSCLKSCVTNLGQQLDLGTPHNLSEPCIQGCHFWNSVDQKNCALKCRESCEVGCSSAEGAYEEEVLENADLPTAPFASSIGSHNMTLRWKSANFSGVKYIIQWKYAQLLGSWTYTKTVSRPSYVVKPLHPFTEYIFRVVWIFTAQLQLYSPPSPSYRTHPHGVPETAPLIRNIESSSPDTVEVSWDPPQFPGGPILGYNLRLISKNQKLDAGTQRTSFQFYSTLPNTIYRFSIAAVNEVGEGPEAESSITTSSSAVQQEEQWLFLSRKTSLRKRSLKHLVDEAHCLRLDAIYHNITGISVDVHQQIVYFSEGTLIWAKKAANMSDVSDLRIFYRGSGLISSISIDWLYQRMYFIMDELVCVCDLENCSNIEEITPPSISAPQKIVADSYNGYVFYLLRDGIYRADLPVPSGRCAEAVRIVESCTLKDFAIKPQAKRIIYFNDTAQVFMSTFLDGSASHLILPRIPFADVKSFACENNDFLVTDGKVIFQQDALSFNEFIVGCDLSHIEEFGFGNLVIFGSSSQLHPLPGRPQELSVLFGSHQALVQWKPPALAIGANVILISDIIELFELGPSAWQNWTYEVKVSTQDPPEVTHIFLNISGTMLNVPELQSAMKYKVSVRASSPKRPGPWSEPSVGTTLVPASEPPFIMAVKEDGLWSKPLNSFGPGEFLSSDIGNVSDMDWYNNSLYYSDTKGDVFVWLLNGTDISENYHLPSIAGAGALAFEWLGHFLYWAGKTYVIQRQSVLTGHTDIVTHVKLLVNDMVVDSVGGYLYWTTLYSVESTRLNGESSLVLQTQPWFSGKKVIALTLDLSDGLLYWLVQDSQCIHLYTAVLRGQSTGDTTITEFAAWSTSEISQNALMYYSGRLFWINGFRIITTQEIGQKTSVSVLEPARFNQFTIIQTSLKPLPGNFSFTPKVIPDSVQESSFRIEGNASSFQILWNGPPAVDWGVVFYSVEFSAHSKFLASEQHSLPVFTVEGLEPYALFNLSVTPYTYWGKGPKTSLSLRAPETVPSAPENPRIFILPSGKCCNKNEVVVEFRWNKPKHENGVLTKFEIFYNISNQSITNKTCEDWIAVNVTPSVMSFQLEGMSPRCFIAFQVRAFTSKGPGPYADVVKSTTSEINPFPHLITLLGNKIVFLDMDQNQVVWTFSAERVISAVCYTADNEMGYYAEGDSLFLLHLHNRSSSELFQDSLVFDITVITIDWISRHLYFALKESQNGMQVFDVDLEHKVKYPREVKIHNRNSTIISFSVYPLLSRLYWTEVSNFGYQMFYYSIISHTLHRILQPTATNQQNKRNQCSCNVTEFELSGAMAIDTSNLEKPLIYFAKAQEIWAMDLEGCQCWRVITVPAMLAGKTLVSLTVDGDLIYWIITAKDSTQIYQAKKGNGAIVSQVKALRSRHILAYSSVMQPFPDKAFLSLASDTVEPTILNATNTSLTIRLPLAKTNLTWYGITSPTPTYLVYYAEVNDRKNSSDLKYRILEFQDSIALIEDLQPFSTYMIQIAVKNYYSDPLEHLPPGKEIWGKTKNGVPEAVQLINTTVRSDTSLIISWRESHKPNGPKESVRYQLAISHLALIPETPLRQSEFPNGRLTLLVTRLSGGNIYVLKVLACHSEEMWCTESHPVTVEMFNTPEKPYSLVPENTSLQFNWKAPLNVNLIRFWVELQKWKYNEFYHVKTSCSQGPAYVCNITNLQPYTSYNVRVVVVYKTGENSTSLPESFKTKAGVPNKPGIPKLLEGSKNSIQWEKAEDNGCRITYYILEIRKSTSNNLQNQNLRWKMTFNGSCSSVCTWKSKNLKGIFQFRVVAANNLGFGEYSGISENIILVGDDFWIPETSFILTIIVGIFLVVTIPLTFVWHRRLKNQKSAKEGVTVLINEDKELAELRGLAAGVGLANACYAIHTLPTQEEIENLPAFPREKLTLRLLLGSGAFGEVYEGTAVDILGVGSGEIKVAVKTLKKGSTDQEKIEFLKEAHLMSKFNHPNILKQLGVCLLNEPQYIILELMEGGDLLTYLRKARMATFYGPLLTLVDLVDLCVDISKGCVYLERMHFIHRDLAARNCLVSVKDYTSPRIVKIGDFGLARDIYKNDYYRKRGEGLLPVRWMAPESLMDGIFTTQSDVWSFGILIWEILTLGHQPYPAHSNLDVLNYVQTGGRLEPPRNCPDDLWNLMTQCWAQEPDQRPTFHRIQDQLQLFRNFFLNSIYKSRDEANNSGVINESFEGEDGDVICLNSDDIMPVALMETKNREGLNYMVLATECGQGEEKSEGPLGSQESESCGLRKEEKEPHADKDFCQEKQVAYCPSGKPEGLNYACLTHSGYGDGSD
# TAOK1 (human) = TAOK1 (human) (UniProt Q7L7X3)
# PTK6 (human) = PTK6 (human) (UniProt Q13882)
# DAPK2 (human) = DAPK2 (human) (UniProt Q9UIK4)
# DAPK3 (human) = DAPK3 (human) (UniProt O43293)
# MET (human) = MET (human) (UniProt P08581)
# ADRBK2 (human) = ADRBK2 (human) (UniProt P35626)
# TGFBR1 (human) = TGFBR1 (human) (UniProt P36897)
# PDPK1 (human) = PDPK1 (human) (UniProt O15530)
# PRKCE (human) = PRKCE (human) (UniProt Q02156)
# RPS6KA4 KD2 (human) = RPS6KA4 KD2 (human) (UniProt O75676)
# RPS6KA6 KD1 KD2 (human) = RPS6KA6 KD1 KD2 (human) (UniProt Q9UK32)
# Chain of RPS6KA6 KD1 KD2 (human) (Q9UK32 whole entry, looked up): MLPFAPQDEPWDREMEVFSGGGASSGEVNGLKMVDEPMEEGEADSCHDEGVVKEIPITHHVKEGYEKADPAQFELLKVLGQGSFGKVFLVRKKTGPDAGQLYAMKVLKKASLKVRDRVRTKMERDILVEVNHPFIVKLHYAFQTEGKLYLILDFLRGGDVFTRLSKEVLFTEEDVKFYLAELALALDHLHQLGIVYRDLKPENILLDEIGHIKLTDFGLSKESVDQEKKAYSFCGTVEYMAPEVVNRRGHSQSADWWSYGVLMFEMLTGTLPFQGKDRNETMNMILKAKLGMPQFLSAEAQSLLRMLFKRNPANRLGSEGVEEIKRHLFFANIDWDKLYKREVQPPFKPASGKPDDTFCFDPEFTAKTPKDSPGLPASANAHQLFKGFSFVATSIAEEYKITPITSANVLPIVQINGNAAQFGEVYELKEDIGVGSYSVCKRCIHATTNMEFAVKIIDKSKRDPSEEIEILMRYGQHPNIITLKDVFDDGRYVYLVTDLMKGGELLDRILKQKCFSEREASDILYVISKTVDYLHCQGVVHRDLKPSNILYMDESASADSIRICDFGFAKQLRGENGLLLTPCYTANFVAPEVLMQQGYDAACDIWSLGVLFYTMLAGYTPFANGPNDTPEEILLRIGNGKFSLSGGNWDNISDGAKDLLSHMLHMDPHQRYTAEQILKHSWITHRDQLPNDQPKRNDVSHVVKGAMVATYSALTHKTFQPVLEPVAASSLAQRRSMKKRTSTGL
# CAMK2A (human) = CAMK2A (human) (UniProt Q9UQM7)
# FRK (human) = FRK (human) (UniProt P42685)
# [1] = target: TYK2 JH1 catalytic (human) (UniProt P29597)
# MAPK9 (human) = MAPK9 (human) (UniProt P45984)
# LIMK1 (human) = LIMK1 (human) (UniProt P53667)
# CLK1 (human) = CLK1 (human) (UniProt P49759)
# CSNK1G2 (human) = CSNK1G2 (human) (UniProt P78368)
# MINK1 (human) = MINK1 (human) (UniProt Q8N4C8)
# Chain of ZAP70 (human) (P43403 whole entry, looked up): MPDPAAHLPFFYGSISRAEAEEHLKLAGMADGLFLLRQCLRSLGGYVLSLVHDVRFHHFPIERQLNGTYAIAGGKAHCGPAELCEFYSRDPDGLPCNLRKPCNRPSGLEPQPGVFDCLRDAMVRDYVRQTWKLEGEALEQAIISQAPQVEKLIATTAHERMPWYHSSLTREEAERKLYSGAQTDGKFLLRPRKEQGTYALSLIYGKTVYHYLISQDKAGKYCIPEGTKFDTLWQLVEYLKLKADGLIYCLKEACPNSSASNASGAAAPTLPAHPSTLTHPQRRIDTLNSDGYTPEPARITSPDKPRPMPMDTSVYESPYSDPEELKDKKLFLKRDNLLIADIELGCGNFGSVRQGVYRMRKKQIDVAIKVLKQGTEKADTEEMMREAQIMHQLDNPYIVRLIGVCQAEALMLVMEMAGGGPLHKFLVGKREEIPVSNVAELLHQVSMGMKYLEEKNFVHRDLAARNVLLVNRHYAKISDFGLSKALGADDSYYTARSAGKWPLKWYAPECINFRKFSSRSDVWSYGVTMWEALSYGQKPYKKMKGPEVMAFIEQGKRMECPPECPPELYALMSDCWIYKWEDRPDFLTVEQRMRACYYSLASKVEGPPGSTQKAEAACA
# Chain of PRKCB1 (human) (P05771 whole entry, looked up): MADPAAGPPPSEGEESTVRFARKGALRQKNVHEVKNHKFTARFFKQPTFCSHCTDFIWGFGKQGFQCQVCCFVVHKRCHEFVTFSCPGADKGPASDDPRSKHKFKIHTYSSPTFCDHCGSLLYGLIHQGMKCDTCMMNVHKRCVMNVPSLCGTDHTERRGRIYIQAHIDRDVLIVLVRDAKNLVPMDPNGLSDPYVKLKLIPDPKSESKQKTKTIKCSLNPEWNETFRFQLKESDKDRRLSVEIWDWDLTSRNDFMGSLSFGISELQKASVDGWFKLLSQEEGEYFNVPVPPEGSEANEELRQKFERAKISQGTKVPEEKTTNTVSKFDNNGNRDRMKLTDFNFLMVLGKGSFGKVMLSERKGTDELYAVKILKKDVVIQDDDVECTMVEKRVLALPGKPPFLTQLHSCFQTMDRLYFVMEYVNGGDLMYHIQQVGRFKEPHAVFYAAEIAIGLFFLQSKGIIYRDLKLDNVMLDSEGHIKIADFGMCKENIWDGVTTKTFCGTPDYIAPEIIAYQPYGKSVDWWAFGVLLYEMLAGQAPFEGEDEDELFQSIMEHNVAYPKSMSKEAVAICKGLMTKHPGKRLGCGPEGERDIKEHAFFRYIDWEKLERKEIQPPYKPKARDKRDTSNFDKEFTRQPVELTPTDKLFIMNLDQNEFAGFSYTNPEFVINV
# Chain of MAPK13 (human) (O15264 whole entry, looked up): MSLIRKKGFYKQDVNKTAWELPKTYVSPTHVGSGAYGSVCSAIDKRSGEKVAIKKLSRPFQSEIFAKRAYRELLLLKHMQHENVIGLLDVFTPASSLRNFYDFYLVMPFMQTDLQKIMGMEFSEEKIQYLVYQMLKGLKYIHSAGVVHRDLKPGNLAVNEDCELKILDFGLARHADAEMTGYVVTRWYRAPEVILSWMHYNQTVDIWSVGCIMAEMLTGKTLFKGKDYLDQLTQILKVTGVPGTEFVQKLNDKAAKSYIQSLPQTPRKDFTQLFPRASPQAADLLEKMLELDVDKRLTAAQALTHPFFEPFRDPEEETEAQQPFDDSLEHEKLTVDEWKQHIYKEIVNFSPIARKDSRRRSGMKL
smiles,measurement,setting,value
CCN1/C(=C/C(C)=O)Sc2ccc(OC)cc21,residual activity,MAPK13 (human),105%
same,residual activity,ZAP70 (human),103%
same,residual activity,PRKCB1 (human),99.4%
same,residual activity,NTRK2 (human),104%
same,residual activity,AXL (human),105%
same,residual activity,WNK2 (human),91.1%
same,residual activity,STK16 (human),87.4%
same,residual activity,MAP4K4 (human),83.2%
same,residual activity,FER (human),87.9%
same,residual activity,TTK (human),88.7%
same,residual activity,EPHB2 (human),98.3%
same,residual activity,BRSK1 (human),89.4%
same,residual activity,ALK (human),105%
same,residual activity,SYK (human),94.8%
same,residual activity,ULK1 (human),115%
same,residual activity,MAPKAPK3 (human),90.1%
same,residual activity,CDK1 CCNB1 (human),93.2%
same,residual activity,HIPK4 (human),94%
same,residual activity,RPS6KA2 KD1 KD2 (human),83.3%
same,residual activity,NEK3 (human),82.5%
same,residual activity,STK11 (human),86.6%
same,residual activity,CDK2 CCNA2 (human),89.7%
same,residual activity,ROS1 (human),113%
same,residual activity,TAOK1 (human),92.4%
same,residual activity,PTK6 (human),85.3%
same,residual activity,DAPK2 (human),90.3%
same,residual activity,DAPK3 (human),98.7%
same,residual activity,MET (human),103%
same,residual activity,ADRBK2 (human),82.9%
same,residual activity,TGFBR1 (human),94.2%
same,residual activity,PDPK1 (human),97.5%
same,residual activity,PRKCE (human),95.2%
same,residual activity,RPS6KA4 KD2 (human),91.8%
same,residual activity,RPS6KA6 KD1 KD2 (human),89%
same,residual activity,CAMK2A (human),103%
same,residual activity,FRK (human),99.5%
same,residual activity,[1],113%
same,residual activity,MAPK9 (human),101%
same,residual activity,LIMK1 (human),108%
COc1cc2ncnc(Nc3ccc(F)c(Cl)c3)c2cc1OCCCN1CCOCC1,residual activity,MAPK13 (human),94.7%
same,residual activity,ZAP70 (human),96.5%
same,residual activity,PRKCB1 (human),95%
same,residual activity,NTRK2 (human),98.2%
same,residual activity,AXL (human),88.8%
same,residual activity,WNK2 (human),97.2%
same,residual activity,STK16 (human),96.8%
same,residual activity,MAP4K4 (human),97.8%
same,residual activity,FER (human),94.1%
same,residual activity,TTK (human),96.3%
same,residual activity,EPHB2 (human),87.7%
same,residual activity,CLK1 (human),105%
same,residual activity,BRSK1 (human),92.5%
same,residual activity,ALK (human),98.8%
same,residual activity,CSNK1G2 (human),98.1%
same,residual activity,SYK (human),104%
same,residual activity,ULK1 (human),93%
same,residual activity,MAPKAPK3 (human),99.6%
same,residual activity,CDK1 CCNB1 (human),99.1%
same,residual activity,HIPK4 (human),90.4%
same,residual activity,RPS6KA2 KD1 KD2 (human),82.3%
same,residual activity,NEK3 (human),94.4%
same,residual activity,STK11 (human),106%
same,residual activity,CDK2 CCNA2 (human),95.9%
same,residual activity,ROS1 (human),92.3%
same,residual activity,TAOK1 (human),103%
same,residual activity,PTK6 (human),77.2%
same,residual activity,DAPK2 (human),93.2%
same,residual activity,DAPK3 (human),95.7%
same,residual activity,MET (human),92.4%
same,residual activity,ADRBK2 (human),97.9%
same,residual activity,TGFBR1 (human),99.6%
same,residual activity,PDPK1 (human),88.2%
same,residual activity,PRKCE (human),97.3%
same,residual activity,RPS6KA4 KD2 (human),104%
same,residual activity,RPS6KA6 KD1 KD2 (human),95.2%
same,residual activity,CAMK2A (human),94.4%
same,residual activity,FRK (human),97.9%
same,residual activity,[1],102%
same,residual activity,MAPK9 (human),95.5%
same,residual activity,LIMK1 (human),90%
O=C1Nc2cc(Br)ccc2/C1=C1/Nc2ccccc2/C1=N\O,residual activity,MAPK13 (human),87.5%
same,residual activity,ZAP70 (human),107%
same,residual activity,PRKCB1 (human),98.5%
same,residual activity,NTRK2 (human),10.3%
same,residual activity,AXL (human),57.7%
same,residual activity,WNK2 (human),104%
same,residual activity,STK16 (human),64%
same,residual activity,FER (human),69.8%
same,residual activity,TTK (human),69.8%
same,residual activity,EPHB2 (human),74.7%
same,residual activity,CLK1 (human),93.1%
same,residual activity,BRSK1 (human),14.6%
same,residual activity,ALK (human),88.5%
same,residual activity,CSNK1G2 (human),105%
same,residual activity,SYK (human),45.7%
same,residual activity,ULK1 (human),95.3%
same,residual activity,MAPKAPK3 (human),96.1%
same,residual activity,CDK1 CCNB1 (human),50.5%
same,residual activity,HIPK4 (human),106%
same,residual activity,RPS6KA2 KD1 KD2 (human),33.7%
same,residual activity,NEK3 (human),84.4%
same,residual activity,STK11 (human),42.1%
same,residual activity,CDK2 CCNA2 (human),7.66%
same,residual activity,MINK1 (human),47.8%
same,residual activity,ROS1 (human),82%
same,residual activity,TAOK1 (human),98.5%
same,residual activity,PTK6 (human),89.3%
same,residual activity,DAPK2 (human),91%
same,residual activity,DAPK3 (human),84.9%
same,residual activity,MET (human),70%
same,residual activity,ADRBK2 (human),104%
same,residual activity,TGFBR1 (human),99.8%
same,residual activity,PDPK1 (human),86.4%
same,residual activity,PRKCE (human),92.4%
same,residual activity,RPS6KA4 KD2 (human),56.1%
same,residual activity,RPS6KA6 KD1 KD2 (human),43.1%
same,residual activity,CAMK2A (human),13.9%
same,residual activity,FRK (human),23.2%
same,residual activity,[1],25.6%
same,residual activity,MAPK9 (human),80.3%
same,residual activity,LIMK1 (human),51.7%
C#Cc1cccc(Nc2ncnc3cc(OCCOC)c(OCCOC)cc23)c1,residual activity,MAPK13 (human),95%
same,residual activity,ZAP70 (human),94.4%
same,residual activity,PRKCB1 (human),92.4%
same,residual activity,NTRK2 (human),93.1%
same,residual activity,STK16 (human),98%
same,residual activity,FER (human),94%
same,residual activity,TTK (human),91.8%
same,residual activity,EPHB2 (human),95.1%
same,residual activity,CLK1 (human),107%
same,residual activity,CSNK1G2 (human),98.3%
same,residual activity,ULK1 (human),113%
same,residual activity,MAPKAPK3 (human),98.1%
same,residual activity,CDK1 CCNB1 (human),97.2%
same,residual activity,RPS6KA2 KD1 KD2 (human),101%
same,residual activity,NEK3 (human),95.6%
same,residual activity,CDK2 CCNA2 (human),95.9%
same,residual activity,ROS1 (human),99.6%
same,residual activity,TAOK1 (human),98.3%
same,residual activity,PTK6 (human),85.9%
same,residual activity,DAPK2 (human),92.5%
same,residual activity,DAPK3 (human),95.4%
same,residual activity,ADRBK2 (human),94.8%
same,residual activity,TGFBR1 (human),99.1%
same,residual activity,PDPK1 (human),83.8%
same,residual activity,RPS6KA6 KD1 KD2 (human),99.1%
same,residual activity,CAMK2A (human),97.6%
same,residual activity,FRK (human),102%
same,residual activity,LIMK1 (human),90.4%
CS(=O)c1ccc(-c2nc(-c3ccc(F)cc3)c(-c3ccncc3)[nH]2)cc1 (centres undefined),residual activity,MAPK13 (human),106%
same,residual activity,ZAP70 (human),94.4%
same,residual activity,PRKCB1 (human),74%
same,residual activity,NTRK2 (human),104%
same,residual activity,AXL (human),101%
same,residual activity,WNK2 (human),103%
same,residual activity,STK16 (human),111%
same,residual activity,FER (human),95%
same,residual activity,TTK (human),99.9%
same,residual activity,EPHB2 (human),108%
same,residual activity,CLK1 (human),101%
same,residual activity,BRSK1 (human),97.9%
same,residual activity,ALK (human),105%
same,residual activity,CSNK1G2 (human),95.7%
same,residual activity,SYK (human),98%
same,residual activity,ULK1 (human),89.3%
same,residual activity,CDK1 CCNB1 (human),99.1%
same,residual activity,HIPK4 (human),93.5%
same,residual activity,RPS6KA2 KD1 KD2 (human),102%
same,residual activity,NEK3 (human),92.2%
same,residual activity,STK11 (human),81.6%
same,residual activity,CDK2 CCNA2 (human),101%
same,residual activity,MINK1 (human),107%
same,residual activity,ROS1 (human),94.4%
same,residual activity,TAOK1 (human),97.9%
same,residual activity,PTK6 (human),54.2%
same,residual activity,DAPK2 (human),102%
same,residual activity,DAPK3 (human),95.5%
same,residual activity,MET (human),103%
same,residual activity,ADRBK2 (human),98.2%
same,residual activity,TGFBR1 (human),101%
same,residual activity,PDPK1 (human),96.3%
same,residual activity,PRKCE (human),115%
same,residual activity,RPS6KA4 KD2 (human),99.6%
same,residual activity,RPS6KA6 KD1 KD2 (human),110%
same,residual activity,CAMK2A (human),101%
same,residual activity,FRK (human),87.2%
same,residual activity,[1],102%
same,residual activity,MAPK9 (human),100%
same,residual activity,LIMK1 (human),91.3%
